According to the NIST ThermoML archive (doi:10.1021/acs.jced.8b00554):

Assay: xn = mol fraction of the nth substance listed
Settings: Liquid, Vibrating tube method

CCCCCCCCC [nonane] + CCCO
mass density [kg/m3]
Settings	353.15 K	363.15 K
100 kPa, x2 = 0.1231	–	655.98
100 kPa, x2 = 0.2315	–	657.04
100 kPa, x2 = 0.3229	–	658.57
100 kPa, x2 = 0.4272	–	662.45
100 kPa, x2 = 0.7021	–	683
100 kPa, x2 = 0.8941	–	710.52
1000 kPa, x2 = 0.1231	–	657.23
1000 kPa, x2 = 0.8941	–	710.94
1010 kPa, x2 = 0.2315	–	659.34
1010 kPa, x2 = 0.4272	–	664.09
1010 kPa, x2 = 0.7021	–	683.53
1020 kPa, x2 = 0.3229	–	660.57
2010 kPa, x2 = 0.1231	–	658.47
2010 kPa, x2 = 0.2315	–	660.57
2010 kPa, x2 = 0.3229	–	661.82
2010 kPa, x2 = 0.4272	–	665.32
2010 kPa, x2 = 0.7021	–	684.79
2010 kPa, x2 = 0.8941	–	712.1
3010 kPa, x2 = 0.2315	–	661.79
3010 kPa, x2 = 0.3229	–	663.05
3010 kPa, x2 = 0.7021	–	686.04
3010 kPa, x2 = 0.8941	–	713.33
3020 kPa, x2 = 0.1231	–	659.67
3020 kPa, x2 = 0.4272	–	666.57
4010 kPa, x2 = 0.1231	–	660.89
4010 kPa, x2 = 0.3229	–	664.28
4010 kPa, x2 = 0.4272	–	667.83
4010 kPa, x2 = 0.7021	–	687.34
4010 kPa, x2 = 0.8941	–	714.55
4020 kPa, x2 = 0.2315	–	663.04
5000 kPa, x2 = 0.4272	–	669.09
5000 kPa, x2 = 0.7021	–	688.61
5010 kPa, x2 = 0.1231	–	662.09
5010 kPa, x2 = 0.2315	–	664.23
5010 kPa, x2 = 0.3229	–	665.52
5010 kPa, x2 = 0.8941	–	715.78
6000 kPa, x2 = 0.7021	–	689.86
6010 kPa, x2 = 0.2315	–	665.41
6010 kPa, x2 = 0.4272	–	670.36
6010 kPa, x2 = 0.8941	–	717.03
6020 kPa, x2 = 0.1231	–	663.3
6020 kPa, x2 = 0.3229	–	666.76
7000 kPa, x2 = 0.3229	–	667.99
7000 kPa, x2 = 0.7021	–	691.15
7010 kPa, x2 = 0.1231	–	664.48
7010 kPa, x2 = 0.2315	–	666.62
7020 kPa, x2 = 0.4272	–	671.62
7020 kPa, x2 = 0.8941	–	718.27
8000 kPa, x2 = 0.3229	–	669.23
8000 kPa, x2 = 0.7021	–	692.44
8010 kPa, x2 = 0.8941	–	719.48
8020 kPa, x2 = 0.1231	–	665.72
8020 kPa, x2 = 0.2315	–	667.87
8020 kPa, x2 = 0.4272	–	672.88
9000 kPa, x2 = 0.2315	–	669.09
9000 kPa, x2 = 0.3229	–	670.48
9010 kPa, x2 = 0.7021	–	693.71
9010 kPa, x2 = 0.8941	–	720.71
9020 kPa, x2 = 0.1231	–	666.89
9020 kPa, x2 = 0.4272	–	674.14
10010 kPa, x2 = 0.1231	–	668.07
10010 kPa, x2 = 0.2315	–	670.27
10010 kPa, x2 = 0.3229	–	671.75
10010 kPa, x2 = 0.4272	–	675.41
10010 kPa, x2 = 0.7021	–	694.96
10010 kPa, x2 = 0.8941	–	721.93
11000 kPa, x2 = 0.1231	679.16	–
11000 kPa, x2 = 0.4272	688.79	–
11010 kPa, x2 = 0.1231	–	669.29
11010 kPa, x2 = 0.2315	682.07	671.48
11010 kPa, x2 = 0.3229	–	672.98
11010 kPa, x2 = 0.4272	–	676.62
11010 kPa, x2 = 0.7021	709.06	–
11010 kPa, x2 = 0.8941	735.52	723.15
11020 kPa, x2 = 0.3229	684.47	–
11020 kPa, x2 = 0.7021	–	696.2
12000 kPa, x2 = 0.3229	685.59	674.18
12000 kPa, x2 = 0.7021	710.18	697.42
12010 kPa, x2 = 0.1231	680.24	670.44
12010 kPa, x2 = 0.2315	683.2	672.7
12010 kPa, x2 = 0.4272	689.92	677.87
12010 kPa, x2 = 0.8941	736.6	724.32
13000 kPa, x2 = 0.4272	–	679.08
13000 kPa, x2 = 0.8941	–	725.44
13010 kPa, x2 = 0.1231	681.32	671.61
13010 kPa, x2 = 0.3229	–	675.41
13010 kPa, x2 = 0.4272	691.03	–
13010 kPa, x2 = 0.7021	711.31	698.65
13010 kPa, x2 = 0.8941	737.63	–
13020 kPa, x2 = 0.2315	684.28	673.89
13020 kPa, x2 = 0.3229	686.69	–
14000 kPa, x2 = 0.3229	687.76	676.57
14000 kPa, x2 = 0.4272	692.13	–
14000 kPa, x2 = 0.8941	738.72	–
14010 kPa, x2 = 0.1231	682.37	–
14010 kPa, x2 = 0.2315	685.35	–
14010 kPa, x2 = 0.4272	–	680.27
14010 kPa, x2 = 0.7021	–	699.83
14010 kPa, x2 = 0.8941	–	726.63
14020 kPa, x2 = 0.1231	–	672.74
14020 kPa, x2 = 0.2315	–	675.04
14020 kPa, x2 = 0.7021	712.38	–
15000 kPa, x2 = 0.2315	–	676.17
15000 kPa, x2 = 0.4272	693.19	–
15010 kPa, x2 = 0.1231	683.4	673.85
15010 kPa, x2 = 0.3229	688.83	677.73
15010 kPa, x2 = 0.4272	–	681.42
15010 kPa, x2 = 0.7021	713.45	–
15010 kPa, x2 = 0.8941	–	727.76
15020 kPa, x2 = 0.2315	686.39	–
15020 kPa, x2 = 0.7021	–	700.99
15020 kPa, x2 = 0.8941	739.75	–
16000 kPa, x2 = 0.2315	687.43	677.27
16000 kPa, x2 = 0.8941	740.76	–
16010 kPa, x2 = 0.1231	684.41	674.91
16010 kPa, x2 = 0.3229	–	678.86
16010 kPa, x2 = 0.4272	694.24	682.56
16010 kPa, x2 = 0.7021	714.52	–
16020 kPa, x2 = 0.3229	689.88	–
16020 kPa, x2 = 0.7021	–	702.15
16020 kPa, x2 = 0.8941	–	728.86
17000 kPa, x2 = 0.1231	–	676
17000 kPa, x2 = 0.8941	741.78	729.95
17010 kPa, x2 = 0.1231	685.42	–
17010 kPa, x2 = 0.2315	–	678.41
17010 kPa, x2 = 0.3229	690.92	–
17010 kPa, x2 = 0.4272	695.25	683.64
17010 kPa, x2 = 0.7021	715.56	–
17020 kPa, x2 = 0.2315	688.48	–
17020 kPa, x2 = 0.3229	–	679.98
17020 kPa, x2 = 0.7021	–	703.28
18000 kPa, x2 = 0.3229	691.91	–
18000 kPa, x2 = 0.7021	716.55	–
18010 kPa, x2 = 0.1231	686.41	677.05
18010 kPa, x2 = 0.2315	689.45	679.45
18010 kPa, x2 = 0.4272	–	684.75
18010 kPa, x2 = 0.7021	–	704.37
18010 kPa, x2 = 0.8941	742.76	–
18020 kPa, x2 = 0.3229	–	681.03
18020 kPa, x2 = 0.4272	696.27	–
18020 kPa, x2 = 0.8941	–	731.02
19000 kPa, x2 = 0.2315	–	680.43
19000 kPa, x2 = 0.3229	692.9	–
19000 kPa, x2 = 0.4272	697.25	–
19000 kPa, x2 = 0.7021	–	705.41
19010 kPa, x2 = 0.1231	687.34	678.04
19010 kPa, x2 = 0.2315	690.38	–
19010 kPa, x2 = 0.3229	–	682.1
19010 kPa, x2 = 0.4272	–	685.8
19010 kPa, x2 = 0.8941	743.72	732.06
19020 kPa, x2 = 0.7021	717.54	–
20000 kPa, x2 = 0.1231	688.24	–
20000 kPa, x2 = 0.2315	691.33	–
20000 kPa, x2 = 0.3229	693.81	–
20010 kPa, x2 = 0.1231	–	679
20010 kPa, x2 = 0.2315	–	681.42
20010 kPa, x2 = 0.3229	–	683.05
20010 kPa, x2 = 0.4272	698.23	686.85
20010 kPa, x2 = 0.7021	718.51	–
20020 kPa, x2 = 0.7021	–	706.48
20020 kPa, x2 = 0.8941	744.66	733.04
